# Active and inactive are the calls of the source. The rule behind the calls is not given here.
# Key:
# Mus musculus = experiment: Inhibitory dose against (+/-)DOI induced (2.5 mg/kg, ip) head twitch response in mice; assay type: functional; conditions: read-out: ID50 (the source's name)
# Rattus norvegicus [1] = experiment: Percent activity for blocking of discriminative property stimulated by (+/-) DOI in rats at 1 mg/kg(+/-DOI 0.35 mg/kg administered to animals pretreated with compound); assay type: functional
# Rattus norvegicus [2] = experiment: Number of responding rats/number of rats to receive the compound at a dose of 1 mg/kg, +/-DOI 0.35 mg/kg was administered intraperitoneally 60 min before test; 9/9; assay type: functional, organism-based
# Rattus norvegicus [3] = experiment: Blocking of discriminative property stimulated by DOI in rats at 1 mg/kg dose, activity expressed as response/min(+/-DOI 0.35 mg/kg administered to animals pretreated with compound); assay type: functional
# Rattus norvegicus [4] = experiment: Number of responding rats/number of rats to receive the compound at a dose of 5 mg/kg, +/-DOI 0.35 mg/kg was administered intraperitoneally 60 min before test; 9/9; assay type: functional, organism-based
# [5] = biological target: 5-hydroxytryptamine receptor 2A (Rattus norvegicus, UniProt P14842); experiment: Displacement of [3H]ketanserin from 5-hydroxytryptamine 2A receptor of rat brain cortex
# 5-hydroxytryptamine receptor 2A, sequence (P14842 whole entry): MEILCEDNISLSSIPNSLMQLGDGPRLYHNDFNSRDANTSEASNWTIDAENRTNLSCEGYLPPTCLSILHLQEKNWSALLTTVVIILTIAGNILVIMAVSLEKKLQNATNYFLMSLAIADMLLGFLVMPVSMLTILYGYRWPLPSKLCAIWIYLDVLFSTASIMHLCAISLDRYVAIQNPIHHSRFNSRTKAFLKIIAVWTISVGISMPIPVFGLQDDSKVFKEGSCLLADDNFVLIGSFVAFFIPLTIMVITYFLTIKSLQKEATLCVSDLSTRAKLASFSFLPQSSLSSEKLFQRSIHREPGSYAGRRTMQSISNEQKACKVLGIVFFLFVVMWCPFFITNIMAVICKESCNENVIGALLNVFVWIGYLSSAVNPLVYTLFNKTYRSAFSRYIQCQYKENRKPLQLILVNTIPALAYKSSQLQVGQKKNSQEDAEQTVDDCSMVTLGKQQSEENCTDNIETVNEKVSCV
# [6] = biological target: T1, 5-hydroxytryptamine receptor 1A (Rattus norvegicus, UniProt P19327); experiment: Displacement of [3H]8-OH-DPAT binding to 5-hydroxytryptamine 1A receptor of rat brain hippocampus; assay type: tissue-based
# T1 sequence (P19327 whole entry): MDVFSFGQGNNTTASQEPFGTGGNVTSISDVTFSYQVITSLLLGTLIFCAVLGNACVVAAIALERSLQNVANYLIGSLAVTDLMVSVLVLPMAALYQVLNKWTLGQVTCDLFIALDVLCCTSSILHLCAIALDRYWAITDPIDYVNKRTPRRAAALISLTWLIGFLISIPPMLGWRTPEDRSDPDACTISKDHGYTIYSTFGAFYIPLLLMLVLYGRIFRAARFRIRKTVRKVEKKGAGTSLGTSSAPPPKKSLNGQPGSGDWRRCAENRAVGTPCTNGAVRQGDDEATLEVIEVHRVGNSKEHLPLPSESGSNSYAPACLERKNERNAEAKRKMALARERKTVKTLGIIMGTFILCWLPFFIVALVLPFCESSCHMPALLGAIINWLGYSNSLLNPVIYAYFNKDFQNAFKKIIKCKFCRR
# Rattus norvegicus [7] = experiment: Blocking of discriminative property stimulated by DOI in rats at 10 mg/kg dose, activity expressed as response/min(+/-DOI 0.35 mg/kg administered to animals pretreated with compound); assay type: functional
# Rattus norvegicus [8] = experiment: Blocking of discriminative property stimulated by DOI in rats at 5 mg/kg dose, activity expressed as response/min(+/-DOI 0.35 mg/kg administered to animals pretreated with compound); assay type: functional
# Rattus norvegicus [9] = experiment: Percent activity for blocking of discriminative property stimulated by (+/-) DOI in rats at 5 mg/kg(+/-DOI 0.35 mg/kg administered to animals pretreated with compound); assay type: functional
# Rattus norvegicus [10] = experiment: Number of responding rats/number of rats to receive the compound at a dose of 10mg/kg, +/-DOI 0.35 mg/kg was administered intraperitoneally 60 min before test; 6/6; assay type: functional, organism-based; set-up: dose 0.35 mg/kg
# Rattus norvegicus [11] = experiment: Percent activity for blocking of discriminative property stimulated by (+/-) DOI in rats at 10 mg/kg(+/-DOI 0.35 mg/kg administered to animals pretreated with compound); assay type: functional
# Rattus norvegicus [12] = experiment: Number of responding rats/number of rats to receive the compound at a dose of 10 mg/kg, +/-DOI 0.35 mg/kg was administered intraperitoneally 60 min before test; 8/8; assay type: functional, organism-based
# Rattus norvegicus [13] = experiment: Number of responding rats/number of rats to receive the compound at a dose of 10 mg/kg, +/-DOI 0.35 mg/kg was administered intraperitoneally 60 min before test; 7/7; assay type: functional, organism-based
# Rattus norvegicus [14] = experiment: Number of responding rats/number of rats to receive the compound at a dose of 15mg/kg, +/-DOI 0.35 mg/kg was administered intraperitoneally 60 min before test; 7/7; assay type: functional, organism-based; set-up: dose 0.35 mg/kg
# Rattus norvegicus [15] = experiment: Blocking of discriminative property stimulated by DOI in rats at 15 mg/kg dose, activity expressed as response/min(+/-DOI 0.35 mg/kg administered to animals pretreated with compound); assay type: functional
# Rattus norvegicus [16] = experiment: Percent activity for blocking of discriminative property stimulated by (+/-) DOI in rats at 15 mg/kg(+/-DOI 0.35 mg/kg administered to animals pretreated with compound); assay type: functional
# Rattus norvegicus [17] = experiment: Blocking of discriminative property stimulated by DOI in rats at 20 mg/kg dose, activity expressed as response/min(+/-DOI 0.35 mg/kg administered to animals pretreated with compound); assay type: functional
# Rattus norvegicus [18] = experiment: Percent activity for blocking of discriminative property stimulated by (+/-) DOI in rats at 20 mg/kg(+/-DOI 0.35 mg/kg administered to animals pretreated with compound); assay type: functional
# Rattus norvegicus [19] = experiment: Number of responding rats/number of rats to receive the compound at a dose of 20 mg/kg, +/-DOI 0.35 mg/kg was administered intraperitoneally 60 min before test; 6/6; assay type: functional, organism-based
# Rattus norvegicus [20] = experiment: Blocking of discriminative property stimulated by DOI in rats at 0.25 mg/kg dose, activity expressed as response/min(+/-DOI 0.35 mg/kg administered to animals pretreated with compound); assay type: functional
# Rattus norvegicus [21] = experiment: Blocking of discriminative property stimulated by DOI in rats at 0.15 mg/kg dose, activity expressed as response/min(+/-DOI 0.35 mg/kg administered to animals pretreated with compound); assay type: functional
# Rattus norvegicus [22] = experiment: Blocking of discriminative property stimulated by DOI in rats at 0.35 mg/kg dose, activity expressed as response/min(+/-DOI 0.35 mg/kg administered to animals pretreated with compound); assay type: functional
# Rattus norvegicus [23] = experiment: Percent activity for blocking of discriminative property stimulated by (+/-) DOI in rats at 0.25 mg/kg(+/-DOI 0.35 mg/kg administered to animals pretreated with compound); assay type: functional
# Rattus norvegicus [24] = experiment: Percent activity for blocking of discriminative property stimulated by (+/-) DOI in rats at 0.15 mg/kg(+/-DOI 0.35 mg/kg administered to animals pretreated with compound); assay type: functional
# Rattus norvegicus [25] = experiment: Percent activity for blocking of discriminative property stimulated by (+/-) DOI in rats at 0.35 mg/kg(+/-DOI 0.35 mg/kg administered to animals pretreated with compound); assay type: functional
SMILES,ED50 (Mus musculus) [mg/kg],Ki [5] [nM],Ki [6] [nM],Response (Rattus norvegicus [7]) [min⁻¹],Activity (Rattus norvegicus [11]) [%],also measured
CN1CCC(=C2c3ccccc3C=Cc3ccccc32)CC1 [CYPROHEPTADINE],0.4,,,,,Activity (Rattus norvegicus [1]): 7.1%; No. of animals (Rattus norvegicus [2]): Active; Response (Rattus norvegicus [3]): 85.8 min⁻¹
CN1CCN(c2nc(-c3ccoc3)cc(-c3ccoc3)n2)CC1,2.4,8,621,72.5,2.8,No. of animals (Rattus norvegicus [4]): Active; Response (Rattus norvegicus [8]): 84.3 min⁻¹; Activity (Rattus norvegicus [9]): 31.1%; No. of animals (Rattus norvegicus [10]): Active
CN1CCN(c2nc(-c3ccoc3)cc(-c3ccco3)n2)CC1,2.7,13,415,85.1,4,No. of animals (Rattus norvegicus [12]): Active
CN1CCN(c2nc(-c3cccs3)cc(-c3cccs3)n2)CC1,,8,972,,,
CN1CCN(c2nc(-c3ccccc3)cc(-c3ccoc3)n2)CC1,3.9,9,1340,86.6,7.2,No. of animals (Rattus norvegicus [13]): Active
CN1CCN(c2nc(-c3ccoc3)cc(-c3cccs3)n2)CC1,4.2,10,2240,60.3,47.3,No. of animals (Rattus norvegicus [12]): Active; No. of animals (Rattus norvegicus [14]): Active; Response (Rattus norvegicus [15]): 66.2 min⁻¹; Activity (Rattus norvegicus [16]): 11.2%
CN1CCN(c2nccc(-c3ccoc3)n2)CC1,9.7,10,700,,,Response (Rattus norvegicus [17]): 84.7 min⁻¹; Activity (Rattus norvegicus [18]): 6.6%; No. of animals (Rattus norvegicus [19]): Active
COc1cc(CC(C)N)c(OC)cc1I (racemic),,,,,,Response (Rattus norvegicus [20]): 79.5 min⁻¹; Response (Rattus norvegicus [21]): 81.3 min⁻¹; Response (Rattus norvegicus [22]): 74.7 min⁻¹; Activity (Rattus norvegicus [23]): 63.1%; Activity (Rattus norvegicus [24]): 37.5%; Activity (Rattus norvegicus [25]): 100%
CN1CCN(c2nccc(-c3ccccc3)n2)CC1,,2100,613,,,
CN1CCN(c2nccc(-c3ccco3)n2)CC1,,745,810,,,
CN1CCN(c2nccc(-c3cccs3)n2)CC1,,208,484,,,
Cc1cc(-c2ccoc2)nc(N2CCN(C)CC2)n1,,50,265,,,
